The NIST ThermoML archive (doi:10.1021/je060271a)
Values joined by “and” are separate entries in the source; they are usually repeats but may differ in a detail not shown here. Equal entries are not always repeated.

Details: 323.15 K, Liquid, Vibrating tube method

CCCCCC(=O)OCC(COC(=O)CCCCC)(COC(=O)CCCCC)COC(=O)CCCCC [pentaerythritol tetrahexanoate]
Details | mass density
4356.6 kPa | 975.7 kg/m3
4377.1 kPa | 975.8 kg/m3
4397.7 kPa | 975.8 kg/m3
4414.6 kPa | 975.8 kg/m3
4431.8 kPa | 975.7 kg/m3
4453.1 kPa | 975.7 kg/m3
4474 kPa | 975.7 kg/m3
4491.8 kPa | 975.8 kg/m3
4509.3 kPa | 975.7 kg/m3
6215.6 kPa | 977 kg/m3
6237.7 kPa | 977 kg/m3
6256.2 kPa | 977.1 kg/m3
6278.3 kPa | 977.1 kg/m3
6297 kPa | 977 kg/m3
6319.4 kPa | 977.2 kg/m3
6338.8 kPa | 977.1 kg/m3
6508.8 kPa | 977.2 kg/m3
6532.7 kPa | 977.2 kg/m3
6552.5 kPa | 977.2 kg/m3
7405.8 kPa | 977.7 kg/m3
7431 kPa | 977.8 kg/m3
7486 kPa | 977.8 kg/m3
7516.4 kPa | 978 kg/m3
7547.5 kPa | 977.8 kg/m3
7600 kPa | 978 kg/m3
7657.3 kPa | 978 kg/m3
7688 kPa | 978 kg/m3
7711.5 kPa | 978.1 kg/m3
7734.2 kPa | 978.1 kg/m3
7761.5 kPa | 978 kg/m3
7886.8 kPa | 978.1 kg/m3
7915.3 kPa | 978.1 kg/m3
7938.6 kPa | 978.2 kg/m3
7966.7 kPa | 978.2 kg/m3
7990.5 kPa | 978.2 kg/m3
8019.5 kPa | 978.3 kg/m3
8044.2 kPa | 978.3 kg/m3
8073.3 kPa | 978.1 kg/m3
8098.3 kPa | 978.3 kg/m3
8128.9 kPa | 978.3 kg/m3
8158.2 kPa | 978.5 kg/m3
8182.5 kPa | 978.3 kg/m3
8207.5 kPa | 978.3 kg/m3
9038.7 kPa | 978.9 kg/m3
9060.6 kPa | 979.1 kg/m3
9078.3 kPa | 978.9 kg/m3
9100 kPa | 978.9 kg/m3
9123 kPa | 978.9 kg/m3
9245.2 kPa | 979 kg/m3
9267 kPa | 979 kg/m3
9289.4 kPa | 979.1 kg/m3
9308.6 kPa | 979.1 kg/m3
9331.8 kPa | 979.1 kg/m3
9354.9 kPa | 979 kg/m3
9374.6 kPa | 979.1 kg/m3
9395.3 kPa | 979.1 kg/m3
9417.9 kPa | 979.2 kg/m3
9435.5 kPa | 979.1 kg/m3
9456.1 kPa | 979.2 kg/m3
9473 kPa | 979.2 kg/m3
9493.7 kPa | 979.2 kg/m3
9510.8 kPa | 979.3 kg/m3
9531.3 kPa | 979.2 kg/m3
9552.1 kPa | 979.3 kg/m3
9569.5 kPa | 979.3 kg/m3
9590.4 kPa | 979.3 kg/m3
9603.6 kPa | 979.4 kg/m3
9617.2 kPa | 979.3 kg/m3
9629.1 kPa | 979.4 kg/m3
9642.9 kPa | 979.3 kg/m3
9655.3 kPa | 979.4 kg/m3
9669.9 kPa | 979.3 kg/m3
9681.3 kPa | 979.5 kg/m3
9694.7 kPa | 979.3 kg/m3
9706.3 kPa | 979.4 kg/m3
9735.4 kPa | 979.4 kg/m3
9747.4 kPa | 979.4 kg/m3
9762.1 kPa | 979.4 kg/m3
9776.4 kPa | 979.4 kg/m3
9788.2 kPa | 979.5 kg/m3
9798.4 kPa | 979.4 kg/m3
9804.9 kPa | 979.4 kg/m3
9900.4 kPa | 979.4 kg/m3
9910.4 kPa | 979.4 kg/m3
9915.9 kPa | 979.4 kg/m3
9925.7 kPa | 979.6 kg/m3
9936.9 kPa | 979.5 kg/m3
9949.3 kPa | 979.5 kg/m3
9960.5 kPa | 979.5 kg/m3
9987.7 kPa | 979.6 kg/m3
9992.5 kPa | 979.5 kg/m3
10032 kPa | 979.7 kg/m3
10036 kPa | 979.6 kg/m3 and 979.7 kg/m3
10106 kPa | 979.7 kg/m3
10118 kPa | 979.7 kg/m3
10128 kPa | 979.6 kg/m3
10139 kPa | 979.6 kg/m3
10152 kPa | 979.6 kg/m3
10164 kPa | 979.7 kg/m3
10182 kPa | 979.6 kg/m3
10203 kPa | 979.7 kg/m3
10219 kPa | 979.8 kg/m3
10240 kPa | 979.8 kg/m3
10257 kPa | 979.7 kg/m3
10473 kPa | 979.9 kg/m3
10503 kPa | 979.9 kg/m3
10540 kPa | 980 kg/m3
10575 kPa | 979.9 kg/m3
10605 kPa | 980 kg/m3
10670 kPa | 980 kg/m3
10704 kPa | 980 kg/m3
10737 kPa | 980.1 kg/m3
10764 kPa | 980.1 kg/m3
10956 kPa | 980.2 kg/m3
10977 kPa | 980.2 kg/m3
11001 kPa | 980.3 kg/m3
11018 kPa | 980.2 kg/m3
11037 kPa | 980.2 kg/m3
11056 kPa | 980.3 kg/m3
11071 kPa | 980.4 kg/m3
11201 kPa | 980.4 kg/m3
11204 kPa | 980.4 kg/m3
11210 kPa | 980.4 kg/m3
11217 kPa | 980.4 kg/m3
11228 kPa | 980.4 kg/m3
11243 kPa | 980.4 kg/m3
11257 kPa | 980.3 kg/m3
11280 kPa | 980.5 kg/m3
11301 kPa | 980.4 kg/m3
11327 kPa | 980.5 kg/m3
11349 kPa | 980.5 kg/m3
11374 kPa | 980.6 kg/m3
11395 kPa | 980.6 kg/m3
11421 kPa | 980.6 kg/m3
11448 kPa | 980.5 kg/m3
11470 kPa | 980.5 kg/m3
11496 kPa | 980.6 kg/m3
11518 kPa | 980.6 kg/m3
11545 kPa | 980.6 kg/m3
11572 kPa | 980.5 kg/m3
11594 kPa | 980.5 kg/m3
11621 kPa | 980.6 kg/m3
11849 kPa | 980.8 kg/m3
11899 kPa | 980.9 kg/m3
11926 kPa | 980.8 kg/m3
